We go through eleven compounds from ChEMBL document CHEMBL1743201, “Casarett and Doull's Toxicology The Basic Science of Poisons, 7th edition” (2008).

Common to all, as to assay type: ADME
In data set [1] the target is T1, UDP-glucuronosyltransferase 2B4 (Homo sapiens, UniProt P06133).
T1 sequence (P06133 whole entry): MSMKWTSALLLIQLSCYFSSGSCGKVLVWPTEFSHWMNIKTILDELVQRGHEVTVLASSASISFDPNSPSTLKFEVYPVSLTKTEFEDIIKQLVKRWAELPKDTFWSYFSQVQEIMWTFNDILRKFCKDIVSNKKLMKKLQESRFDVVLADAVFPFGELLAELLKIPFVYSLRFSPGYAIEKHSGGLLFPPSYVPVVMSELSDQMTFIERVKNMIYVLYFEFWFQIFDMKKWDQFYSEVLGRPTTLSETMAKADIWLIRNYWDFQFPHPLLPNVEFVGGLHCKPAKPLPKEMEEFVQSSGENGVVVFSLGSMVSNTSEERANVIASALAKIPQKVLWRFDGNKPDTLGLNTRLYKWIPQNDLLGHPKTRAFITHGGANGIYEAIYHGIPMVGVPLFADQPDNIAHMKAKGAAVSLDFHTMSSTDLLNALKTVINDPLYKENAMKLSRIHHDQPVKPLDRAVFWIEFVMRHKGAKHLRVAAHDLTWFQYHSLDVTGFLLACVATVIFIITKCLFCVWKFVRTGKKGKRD
Kind of data set: Substrate of human UDP-glucuronosyltransferase UGT2B4.

The target of data set [2] is T2, UDP-glucuronosyltransferase 2B15 (Homo sapiens, UniProt P54855).
T2 sequence (P54855 whole entry): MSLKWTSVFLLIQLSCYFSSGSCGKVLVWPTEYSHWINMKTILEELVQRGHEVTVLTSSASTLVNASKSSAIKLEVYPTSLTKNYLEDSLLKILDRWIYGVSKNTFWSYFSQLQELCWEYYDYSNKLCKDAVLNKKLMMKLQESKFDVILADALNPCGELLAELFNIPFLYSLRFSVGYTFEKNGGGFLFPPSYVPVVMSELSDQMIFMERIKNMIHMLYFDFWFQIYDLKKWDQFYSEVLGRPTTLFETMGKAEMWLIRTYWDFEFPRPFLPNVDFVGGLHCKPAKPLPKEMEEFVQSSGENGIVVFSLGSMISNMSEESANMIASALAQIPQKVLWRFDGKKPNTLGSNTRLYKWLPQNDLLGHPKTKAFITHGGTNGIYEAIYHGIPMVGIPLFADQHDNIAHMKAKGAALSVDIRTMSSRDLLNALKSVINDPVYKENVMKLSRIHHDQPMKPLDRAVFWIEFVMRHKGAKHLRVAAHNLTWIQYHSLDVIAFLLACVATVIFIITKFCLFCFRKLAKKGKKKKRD
Kind of data set: Substrate of human UDP-glucuronosyltransferase UGT2B15.

For data set [3], the target named is T3, Glutathione S-transferase A4 (Homo sapiens, UniProt O15217).
T3 sequence (O15217 whole entry): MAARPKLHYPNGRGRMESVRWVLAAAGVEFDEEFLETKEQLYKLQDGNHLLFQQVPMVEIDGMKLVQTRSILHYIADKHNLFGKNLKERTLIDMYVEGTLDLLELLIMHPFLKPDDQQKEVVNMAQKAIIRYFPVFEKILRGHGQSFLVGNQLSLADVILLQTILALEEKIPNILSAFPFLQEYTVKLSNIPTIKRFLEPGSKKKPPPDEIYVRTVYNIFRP
Kind of data set: Substrates for human cytosolic glutathione transferase GSTA4.

For data set [4], the target named is T4, UDP-glucuronosyltransferase 1A6 (Homo sapiens, UniProt P19224).
T4 sequence (P19224 whole entry): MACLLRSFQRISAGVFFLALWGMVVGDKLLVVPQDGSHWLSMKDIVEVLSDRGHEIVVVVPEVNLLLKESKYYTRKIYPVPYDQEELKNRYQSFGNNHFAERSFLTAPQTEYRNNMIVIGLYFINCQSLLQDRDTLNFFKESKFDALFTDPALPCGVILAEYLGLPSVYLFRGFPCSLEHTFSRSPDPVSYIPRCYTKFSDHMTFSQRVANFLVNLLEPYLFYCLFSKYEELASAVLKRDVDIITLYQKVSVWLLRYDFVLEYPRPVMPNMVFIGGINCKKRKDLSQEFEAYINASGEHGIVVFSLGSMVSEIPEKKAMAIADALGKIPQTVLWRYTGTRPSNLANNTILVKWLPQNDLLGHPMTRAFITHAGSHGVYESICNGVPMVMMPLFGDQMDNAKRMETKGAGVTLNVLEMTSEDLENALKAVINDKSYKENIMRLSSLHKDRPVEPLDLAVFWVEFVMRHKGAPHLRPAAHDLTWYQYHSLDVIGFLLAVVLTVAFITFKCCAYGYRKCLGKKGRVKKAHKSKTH
Kind of data set: Substrate of human UDP-glucuronosyltransferase UGT1A6.

For data set [5], the target named is T5, UDP-glucuronosyltransferase 1A7 (Homo sapiens, UniProt Q9HAW7).
T5 sequence (Q9HAW7 whole entry): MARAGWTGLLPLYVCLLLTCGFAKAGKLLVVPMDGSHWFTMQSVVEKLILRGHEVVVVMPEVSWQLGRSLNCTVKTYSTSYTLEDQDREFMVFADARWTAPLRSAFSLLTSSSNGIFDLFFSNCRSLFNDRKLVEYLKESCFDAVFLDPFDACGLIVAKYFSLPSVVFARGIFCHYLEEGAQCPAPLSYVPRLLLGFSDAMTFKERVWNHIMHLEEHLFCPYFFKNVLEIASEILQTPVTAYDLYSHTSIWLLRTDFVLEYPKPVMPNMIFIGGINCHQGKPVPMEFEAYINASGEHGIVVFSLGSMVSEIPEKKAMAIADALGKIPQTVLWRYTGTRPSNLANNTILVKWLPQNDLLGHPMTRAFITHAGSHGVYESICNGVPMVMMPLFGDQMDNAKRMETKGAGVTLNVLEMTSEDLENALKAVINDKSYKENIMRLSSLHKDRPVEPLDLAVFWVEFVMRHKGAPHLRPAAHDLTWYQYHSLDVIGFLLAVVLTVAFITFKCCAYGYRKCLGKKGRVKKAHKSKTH
Kind of data set: Substrate of human UDP-glucuronosyltransferase UGT1A7.

Another data set has as its target T6, Sulfotransferase 1E1 (Homo sapiens, UniProt P49888).
T6 sequence (P49888 whole entry): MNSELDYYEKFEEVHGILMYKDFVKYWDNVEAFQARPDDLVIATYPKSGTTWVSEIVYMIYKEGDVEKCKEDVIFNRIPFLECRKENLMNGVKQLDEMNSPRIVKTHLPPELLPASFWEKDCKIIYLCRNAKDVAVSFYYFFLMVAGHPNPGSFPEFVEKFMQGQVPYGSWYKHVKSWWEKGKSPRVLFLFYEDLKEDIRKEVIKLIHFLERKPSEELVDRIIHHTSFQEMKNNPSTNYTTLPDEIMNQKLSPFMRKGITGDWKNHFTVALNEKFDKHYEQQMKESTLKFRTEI
Kind of data set: Major substrate of human cytosolic sulfotransferase SULT1E1.

The target in data set [6] is T7, UDP-glucuronosyltransferase 1A8 (Homo sapiens, UniProt Q9HAW9).
T7 sequence (Q9HAW9 whole entry): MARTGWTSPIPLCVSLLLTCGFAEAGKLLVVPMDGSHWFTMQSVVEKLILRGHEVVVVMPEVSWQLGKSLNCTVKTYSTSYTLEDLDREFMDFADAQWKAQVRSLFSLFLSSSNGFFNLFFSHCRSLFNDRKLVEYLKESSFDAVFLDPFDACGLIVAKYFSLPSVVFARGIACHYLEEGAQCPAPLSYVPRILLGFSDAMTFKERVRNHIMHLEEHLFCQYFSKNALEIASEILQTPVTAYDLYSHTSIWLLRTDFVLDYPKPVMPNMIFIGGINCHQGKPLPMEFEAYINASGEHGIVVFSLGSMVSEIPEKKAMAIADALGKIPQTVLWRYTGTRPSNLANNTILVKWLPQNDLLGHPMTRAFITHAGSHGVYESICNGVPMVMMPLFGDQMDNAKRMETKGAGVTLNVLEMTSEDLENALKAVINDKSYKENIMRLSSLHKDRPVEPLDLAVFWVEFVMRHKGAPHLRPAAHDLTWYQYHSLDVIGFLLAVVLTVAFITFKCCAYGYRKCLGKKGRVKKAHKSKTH
Kind of data set: Substrate of human UDP-glucuronosyltransferase UGT1A8.

For data set [7], the target named is T8, UDP-glucuronosyltransferase 1A10 (Homo sapiens, UniProt Q9HAW8).
T8 sequence (Q9HAW8 whole entry): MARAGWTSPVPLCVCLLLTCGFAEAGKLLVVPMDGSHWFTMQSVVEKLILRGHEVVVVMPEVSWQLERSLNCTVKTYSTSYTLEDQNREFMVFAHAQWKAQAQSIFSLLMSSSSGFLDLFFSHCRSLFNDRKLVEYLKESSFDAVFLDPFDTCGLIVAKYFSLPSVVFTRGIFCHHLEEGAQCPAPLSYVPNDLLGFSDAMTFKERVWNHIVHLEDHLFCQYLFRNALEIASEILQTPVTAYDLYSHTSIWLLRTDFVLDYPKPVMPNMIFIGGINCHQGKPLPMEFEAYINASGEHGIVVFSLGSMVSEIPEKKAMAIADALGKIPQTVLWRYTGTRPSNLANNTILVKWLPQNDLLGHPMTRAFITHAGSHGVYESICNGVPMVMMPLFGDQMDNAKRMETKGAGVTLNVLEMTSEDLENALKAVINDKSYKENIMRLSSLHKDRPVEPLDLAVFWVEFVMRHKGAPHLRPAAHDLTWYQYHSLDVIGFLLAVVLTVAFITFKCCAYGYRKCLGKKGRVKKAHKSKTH
Kind of data set: Substrate of human UDP-glucuronosyltransferase UGT1A10.

The target of data set [8] is T9, UDP-glucuronosyltransferase 1A1 (Homo sapiens, UniProt P22309).
T9 sequence (P22309 whole entry): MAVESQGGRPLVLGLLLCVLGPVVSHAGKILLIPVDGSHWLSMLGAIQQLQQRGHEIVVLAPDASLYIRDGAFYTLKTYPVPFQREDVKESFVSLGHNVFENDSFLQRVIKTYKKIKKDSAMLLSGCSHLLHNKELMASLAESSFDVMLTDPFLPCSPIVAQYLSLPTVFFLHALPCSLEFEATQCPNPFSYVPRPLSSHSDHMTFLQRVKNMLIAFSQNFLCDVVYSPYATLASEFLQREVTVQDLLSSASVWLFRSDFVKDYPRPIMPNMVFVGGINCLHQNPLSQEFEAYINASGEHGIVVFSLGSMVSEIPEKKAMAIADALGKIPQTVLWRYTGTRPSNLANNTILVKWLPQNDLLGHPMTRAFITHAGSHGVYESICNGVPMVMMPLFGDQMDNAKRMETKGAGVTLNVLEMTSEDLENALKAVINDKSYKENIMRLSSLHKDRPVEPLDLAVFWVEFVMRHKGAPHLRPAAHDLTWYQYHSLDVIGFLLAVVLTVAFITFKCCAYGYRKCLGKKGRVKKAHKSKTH
Kind of data set: Substrate of human UDP-glucuronosyltransferase UGT1A1.

Data set [9] addresses T10, UDP-glucuronosyltransferase 2B7 (Homo sapiens, UniProt P16662).
T10 sequence (P16662 whole entry): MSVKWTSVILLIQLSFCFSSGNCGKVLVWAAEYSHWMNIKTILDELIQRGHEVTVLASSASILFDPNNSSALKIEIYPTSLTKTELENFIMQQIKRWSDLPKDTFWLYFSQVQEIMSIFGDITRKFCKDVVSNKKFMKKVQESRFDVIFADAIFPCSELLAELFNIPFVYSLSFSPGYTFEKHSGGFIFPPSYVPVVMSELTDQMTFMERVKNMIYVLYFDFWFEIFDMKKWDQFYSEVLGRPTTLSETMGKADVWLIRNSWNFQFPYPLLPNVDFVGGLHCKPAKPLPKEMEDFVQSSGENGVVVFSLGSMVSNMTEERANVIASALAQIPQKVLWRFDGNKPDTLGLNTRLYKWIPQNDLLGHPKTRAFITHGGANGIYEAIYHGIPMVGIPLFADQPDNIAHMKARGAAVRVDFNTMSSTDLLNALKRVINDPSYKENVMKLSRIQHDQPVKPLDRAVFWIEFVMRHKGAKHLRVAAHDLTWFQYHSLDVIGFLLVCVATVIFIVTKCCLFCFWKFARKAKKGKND
Kind of data set: Substrate of human UDP-glucuronosyltransferase UGT2B7.

Take `C[C@]12CC[C@@H]3c4ccc(O)cc4CC[C@H]3[C@@H]1C[C@@H](O)[C@@H]2O` [ESTRIOL]: the Activity result in data set [1] and in [2] was “Substrate” each time.

Consider `C=C(CC)C(=O)c1ccc(OCC(=O)O)c(Cl)c1Cl` [ETHACRYNIC ACID], for which the Activity entry in [3] is “Substrate”.

For the compound `CCCCCC(O)/C=C/C=O` (centres undefined) [4-HYDROXYNON-2-ENAL], in data set [3], the Activity result is “Substrate”.

With `CCc1c2c(nc3ccc(O)cc13)-c1cc3c(c(=O)n1C2)COC(=O)[C@]3(O)CC` [7-ETHYL-10-HYDROXYCAMPTOTHECIN], the Activity entry in data set [4], in data set [5] and in [2] was “Substrate” each time.

In the case of `C[C@]12CC[C@@H]3c4ccc(O)c(O)c4CC[C@H]3[C@@H]1CCC2=O`, the Activity result (at Sulfotransferase 1E1; in data set [5]) was “Substrate” each time.

With `COc1c(C)c2c(c(O)c1C/C=C(\C)CCC(=O)O)C(=O)OC2` [MYCOPHENOLIC ACID], the Activity result in [5], in data set [6] and in data set [7] was “Substrate” each time.

`C[C@H](CCC(=O)O)[C@H]1CC[C@H]2[C@@H]3C[C@H](O)[C@@H]4C[C@H](O)CC[C@]4(C)[C@H]3CC[C@]12C` [HYODEOXYCHOLIC_ACID]: in [1], the Activity entry is “Substrate”.

Take `COc1ccc2c3c1O[C@H]1[C@@H](O)C=C[C@H]4[C@@H](C2)N(C)CC[C@@]341` [CODEINE]: the Activity result in data set [1] is recorded as “Substrate”.

Consider `C[C@]12CC[C@@H](O)C[C@@H]1CC[C@@H]1[C@@H]2CC[C@]2(C)C(=O)CC[C@@H]12` [ANDROSTERONE], for which, in data set [1], the Activity entry is “Substrate”.

Consider `CCCCCCC(O)/C=C/C=O` (centres undefined), for which, in data set [3], the Activity result is on record as “Substrate”.

Take `COc1ccccc1OCCNCC(O)COc1cccc2[nH]c3ccccc3c12` (centres undefined) [CARVEDILOL]: the Activity entry in data set [8], in data set [1] and in [9] was “Substrate” in each case.
